Experiment: Steady-state plasma LPV pharmacokinetics with and without African potato
Assay type: in vivo, human
Details: for CLF (apparent clearance), arithmetic mean (SD): LPV; for AUC: AUCτ; for concentration at 12 h: Ctrough
[1] = plasma LPV, steady state, day 21, LPV/r plus African potato, n = 16
[2] = plasma LPV, expressed as a percentage of the GM of LPV/r alone, n = 16

CLF (apparent clearance), arithmetic mean (SD) (steady state, day 14, LPV/r alone, n = 16): 4.61 (1.56) l/h | CLF (apparent clearance), arithmetic mean (SD) (steady state, day 21, LPV/r plus African potato, n = 16): 4.64 (1.32) l/h | Cmax (human, plasma, oral): 10100 ng/mL | AUC (human, plasma, oral, arithmetic mean (SD), plasma LPV, steady state, day 14, LPV/r 400/100 mg twice daily alone, n = 16): 94400 ng·h/mL | AUC (human, plasma, oral, arithmetic mean (SD), plasma LPV, steady state, day 21, LPV/r 400/100 mg twice daily plus African potato four capsules once daily for 7 days, n = 16): 93200 ng·h/mL | concentration at 12 h (human, plasma, oral, arithmetic mean (SD), plasma LPV, steady state, day 14, LPV/r alone, n = 16): 4850 ng/mL | concentration at 12 h (human, plasma, oral, arithmetic mean (SD), plasma LPV, steady state, day 21, LPV/r plus African potato, n = 16): 4900 ng/mL | concentration at 12 h (human, plasma, oral, geometric mean, plasma LPV, steady state, day 14, LPV/r alone, n = 16): 4130 ng/mL | concentration at 12 h (human, plasma, oral, geometric mean, plasma LPV, steady state, day 21, LPV/r plus African potato, n = 16): 4380 ng/mL | AUCτ, geometric mean (plasma LPV, steady state, day 14, LPV/r alone, n = 16): 90780 ng·h/mL | AUCτ, geometric mean [1]: 89660 ng·h/mL | Cmax, arithmetic mean (SD) [1]: 10.18 (2.25) μg/ml | AUCτ, PE (point estimate of the ratio of geometric means of LPV/r plus African potato and LPV/r) [2]: 98.77% | Cmax, PE (point estimate of the ratio of geometric means of LPV/r plus African potato and LPV/r) [2]: 100.90% | Ctrough, PE (point estimate of the ratio of geometric means of LPV/r plus African potato and LPV/r) [2]: 105.98%
SMILES: Cc1cccc(C)c1OCC(=O)N[C@@H](Cc1ccccc1)[C@@H](O)C[C@H](Cc1ccccc1)NC(=O)[C@H](C(C)C)N1CCCNC1=O [LPV, Lopinavir]

Source: paper PMC3776002 (International journal of infectious diseases : IJID : …, 2013)
